{"source": "paper PMC6344480", "about": "(Nature Communications, 2019)", "target": "T1, AsfvLIG (African swine fever virus BA71V, UniProt P35970)", "T1 construct": "gene LIG", "T1 sequence (P35970 whole entry, looked up, the tested form may be a part)": "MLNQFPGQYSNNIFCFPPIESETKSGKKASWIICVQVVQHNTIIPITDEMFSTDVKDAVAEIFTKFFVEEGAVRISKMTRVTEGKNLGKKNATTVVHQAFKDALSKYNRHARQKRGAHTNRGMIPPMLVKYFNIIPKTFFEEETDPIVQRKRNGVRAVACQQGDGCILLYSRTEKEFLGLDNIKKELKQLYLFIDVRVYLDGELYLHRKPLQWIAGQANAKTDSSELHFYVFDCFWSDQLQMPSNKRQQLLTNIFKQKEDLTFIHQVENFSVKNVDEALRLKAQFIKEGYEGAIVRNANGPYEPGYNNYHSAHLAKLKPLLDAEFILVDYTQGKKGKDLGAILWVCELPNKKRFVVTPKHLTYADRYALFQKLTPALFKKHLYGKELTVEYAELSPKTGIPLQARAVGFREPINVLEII", "conditions": "non-catalytic AsfvLIG:DNA complex; no Mg2+; bound in the adenylation domain near catalytic Lys151"}
{"smiles": "Nc1ncnc2c1ncn2[C@@H]1O[C@H](COP(=O)(O)OP(=O)(O)OP(=O)(O)O)[C@@H](O)[C@H]1O", "note": "[ATP]", "values": [{"measurement": "X-ray crystal structure (Se-SAD)", "value": "the ATP is bound by the AD domain and stabilized by various interactions"}]}
